In US20250195533A1, “COMBINATION THERAPIES FOR THE TREATMENT OF CANCER” (Erasca, Inc., priority 2020, published 2025):

What was measured:
NCI-H2122 cells = experiment: CellTiter-Glo cellular proliferation/viability assay, fixed concentration of KRAS G12C inhibitor; type: cell-based; conditions: Homo sapiens, NCI-H2122, 120 h, compound of Formula I alone, 5 days, read-out: 2D CTG IC50
NCI-H358 cells = experiment: as above; type: cell-based; conditions: Homo sapiens, 120 h, compound of Formula I alone, 5 days, read-out: 2D CTG IC50
Text: The combination was studied by a cell viability assay. NCI-H358 cells were split onto a 96-well plate.

COCOC[C@H]1C[C@H]2COc3c(Sc4cnc(N5CCC6(CC5)CO[C@@H](C)[C@H]6N)c(CO)n4)ccnc3N2C1 [The compound of Formula I]
IC50 (NCI-H2122 cells): 2780 nM | IC50 (NCI-H358 cells): 168 nM
